Results on ten molecules are retold here after ChEMBL document CHEMBL1201862, “PubChem BioAssay data set” (2004).

Structures are written as SMILES.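 Exposure lasted 48 hours, with cells grown in 96-well plates and compounds tested at five concentrations. Here, GI50 denotes the concentration required for 50% inhibition of growth.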 Activity calls are given as the source filed them. Cut-off read from the data, not from the text of the source: active = GI50 up to about 1.1 µM and inactive = higher. Bounds are passed on as bounds.

Common to all, as to assay: NCI-60 cell line screen, 48 h
The subject of assay [1] is A498.
Assay [2] relates to DU-145.
The test system of assay [3] is EKVX.
The subject of assay [4] is HCC 2998.
The subject of assay [5] is HCT-15.
For assay [6], the system named is HOP-92.
Assay [7] concerns HT-29.
Assay [8] relates to K562.
Assay [9] deals with M14.
Assay [10] has as its system MCF7.
The test system of assay [11] is NCI-H460.
Assay [12] deals with NCI/ADR-RES.
Assay [13] deals with PC-3.
Assay [14] deals with RXF 393.
Assay [15] relates to SF-295.
Assay [16] deals with SK-MEL-2.
For assay [17], the system named is SR.
The test system of assay [18] is SW-620.
For assay [19], the system named is U-251.

For `O=C(O)CSc1nnc2c3ccccc3c3ccccc3c2n1`, the GI50 in [1] is > 100 µM (inactive); in [2] it was 57.9 µM (inactive); in assay [3] it was 63 µM (inactive); in [4] it was 52.6 µM (inactive); in assay [5] it was 44.5 µM; in assay [6], > 100 µM (inactive). Moreover, the GI50 was 68.4 µM (inactive) in assay [7]; 59.6 µM (inactive) in [8]; 47.1 µM (inactive) in [9]; 40.3 µM (inactive) in assay [10]; 31.8 µM (inactive) in assay [11]; > 100 µM (inactive) in [12]. For the same molecule, the GI50 in assay [13] was 50.2 µM (inactive); in assay [14] it was 57.9 µM (inactive); in [15], 41.8 µM (inactive); in assay [16], > 100 µM (inactive); in [17], 31.9 µM (inactive); in [18] it was 42.7 µM (inactive). In assay [19], the GI50 is 46.8 µM (inactive).

Take `COc1ccc2nc3cc(Cl)ccc3c(NCCCCCC(=O)NC(COc3cnc4c(ccc5cccnc54)c3)COc3cnc4c(ccc5cccnc54)c3)c2c1`: the GI50 in assay [1] was 23.2 µM (inactive); in [2], 11.3 µM (inactive); in [3] it was 22.8 µM (inactive); in assay [4], 12.6 µM (inactive); in [5], greater than 100 µM; in assay [6] it was > 100 µM (inactive). Besides, the GI50 in [7] was 5.45 µM (inactive); in assay [8], 3.43 µM (inactive); in assay [9] it was 77.1 µM (inactive); in assay [10] it was 5.04 µM (inactive); in assay [11], 5.47 µM (inactive); in [12] it was > 100 µM (inactive). Besides, the GI50 is 13.9 µM (inactive) in [13]; 10.8 µM (inactive) in assay [14]; 20.8 µM (inactive) in assay [15]; 14.1 µM (inactive) in [16]; 2.76 µM (inactive) in assay [17]; 10.5 µM (inactive) in assay [18]. The GI50 in assay [19] is 8.53 µM (inactive).

With `O=C1Nc2ccccc2/C1=C/c1c(Cl)[nH]c2ccc(O)cc12`, the GI50 in [1] is 2.31 µM (inactive); in assay [2] it was 1.78 µM (inactive); in assay [3] it was 3.28 µM (inactive); in assay [4] it was 11.7 µM (inactive); in [5], 0.971 µM; in assay [6], 5.69 µM (inactive). Further, the GI50 is 3.16 µM (inactive) in [7]; 0.649 µM (active) in assay [8]; 1.36 µM (inactive) in assay [9]; 1.17 µM (inactive) in assay [10]; 3.61 µM (inactive) in assay [11]; 0.944 µM (active) in assay [12]. In addition, the GI50 in assay [13] is 2.32 µM (inactive); in assay [14], 2.36 µM (inactive); in assay [15], 2.79 µM (inactive); in [16] it was 1.55 µM (inactive); in assay [17], 0.177 µM (active); in assay [18], 1.18 µM (inactive). Also, the GI50 in assay [19] is 1.33 µM (inactive).

In the case of `CC(NC1=NCCO1)c1ccccc1Cl` (stereo not given), the GI50 in assay [1] was > 100 µM (inactive); in [2], > 100 µM (inactive); in assay [3] it was > 100 µM (inactive); in assay [4], > 100 µM (inactive); in [5] it was greater than 100 µM; in assay [6], < 0.01 µM (active). For the same molecule, the GI50 in assay [7] was 25.1 µM (inactive); in [8], > 100 µM (inactive); in assay [9], > 100 µM (inactive); in [10] it was > 100 µM (inactive); in [11] it was > 100 µM (inactive); in assay [12], > 100 µM (inactive). The GI50 is 91 µM (inactive) in assay [13]; > 100 µM (inactive) in [14]; > 100 µM (inactive) in [15]; > 100 µM (inactive) in [16]; > 100 µM (inactive) in [17]; > 100 µM (inactive) in assay [18]. The GI50 in assay [19] was > 100 µM (inactive).

As for `CC(=O)C1(c2ccccc2)CCN(Cn2sc3nc(C)cc(C)c3c2=O)CC1`, the GI50 in [1] is 78.2 µM (inactive); in assay [2], 31.4 µM (inactive); in [3], 23.3 µM (inactive); in [4], 25 µM (inactive); in assay [5] it was 26.5 µM; in assay [6], 59.4 µM (inactive). Further, the GI50 is 19.1 µM (inactive) in assay [7]; 26.7 µM (inactive) in assay [8]; 25.8 µM (inactive) in [9]; 40 µM (inactive) in assay [10]; 17.6 µM (inactive) in assay [11]; 32 µM (inactive) in assay [12]. Further, the GI50 in assay [13] is 37.6 µM (inactive); in assay [14], 20.8 µM (inactive); in assay [15] it was > 100 µM (inactive); in assay [16], 44 µM (inactive); in assay [17] it was 32.1 µM (inactive); in assay [18], 24.4 µM (inactive). In addition, the GI50 in assay [19] was 42.3 µM (inactive).

Regarding `CNC(=O)OCc1c(COC(=O)NC)c(-c2ccc(-c3ccccc3)cc2)n(C)c1C`, the GI50 is 0.504 µM (active) in assay [1]; 2.18 µM (inactive) in assay [2]; 2.44 µM (inactive) in assay [3]; 2.82 µM (inactive) in assay [4]; 2.17 µM in [5]; 2.99 µM (inactive) in assay [6]. Moreover, the GI50 in assay [7] is 2.7 µM (inactive); in assay [8] it was 0.822 µM (active); in assay [9] it was 1.47 µM (inactive); in assay [10] it was 2.75 µM (inactive); in assay [11], 0.401 µM (active); in assay [12] it was 2.64 µM (inactive). The GI50 in assay [13] is 2.52 µM (inactive); in assay [14], 0.512 µM (active); in [15], 1.43 µM (inactive); in [16], 0.494 µM (active); in [17], 0.116 µM (active); in [18] it was 5.48 µM (inactive). Moreover, the GI50 in assay [19] was 1.92 µM (inactive).

With `CC1=NN(c2cccc(Cl)c2)C2(C1=Cc1ccc(N(C)C)cc1)C(Cl)C(=O)N2c1nc2ccccc2s1` (stereo not given), the GI50 in assay [1] is 36.3 µM (inactive); in assay [2], 97.5 µM (inactive); in assay [3], > 100 µM (inactive); in assay [4] it was 17.8 µM (inactive); in assay [5], 77.4 µM; in assay [6], 18.6 µM (inactive). The GI50 is 25.5 µM (inactive) in assay [7]; 56.9 µM (inactive) in assay [8]; 18.7 µM (inactive) in assay [9]; 70.5 µM (inactive) in assay [10]; > 100 µM (inactive) in assay [11]; 63.5 µM (inactive) in [12]. Further, the GI50 was > 100 µM (inactive) in [13]; 20.3 µM (inactive) in assay [14]; 67.1 µM (inactive) in assay [15]; 60.3 µM (inactive) in assay [16]; > 100 µM (inactive) in assay [17]; 19.6 µM (inactive) in assay [18]. Also, the GI50 in assay [19] was 53.7 µM (inactive).

`C=C(C(=O)O[C@H]1C/C(C)=C/CC/C(CO)=C/[C@H]2C(=O)OC(=C)[C@H]12)C(O)CO` (stereo not given in full): the GI50 in assay [1] was 18.5 µM (inactive); in assay [2], 17.3 µM (inactive); in [3], 17.3 µM (inactive); in assay [4], 16.4 µM (inactive); in assay [5], 8.05 µM; in assay [6], 8.75 µM (inactive). Moreover, the GI50 was 17.9 µM (inactive) in assay [7]; 4.08 µM (inactive) in assay [8]; 12.2 µM (inactive) in assay [9]; 11.5 µM (inactive) in [10]; 17.2 µM (inactive) in assay [11]; 19.8 µM (inactive) in assay [12]. The GI50 in assay [13] was 9.77 µM (inactive); in assay [14] it was 8.28 µM (inactive); in assay [15], 26.1 µM (inactive); in assay [16], 15.6 µM (inactive); in assay [17], 2.5 µM (inactive); in assay [18], 3.71 µM (inactive). Further, the GI50 in assay [19] was 12.1 µM (inactive).

As for `COc1cc2c(cc1C[C@H]1[C@@H]3C[C@H]4c5c(c6ccccc6n5C)C[C@@H]([C@@H]3CO[C@]1(C)OC(C)=O)N4C)c1c(n2C)C2C[C@H]3C(C(C)=O)=COC[C@H]3[C@H](C1)N2C`, the GI50 in assay [1] was 12.3 µM (inactive); in assay [2], 6.38 µM (inactive); in assay [3], 0.403 µM (active); in assay [4] it was 0.0102 µM (active); in assay [5] it was 3.13 µM; in [6], 4.98 µM (inactive). Besides, the GI50 in assay [7] was 1.53 µM (inactive); in assay [8] it was 6.03 µM (inactive); in assay [9], 3.11 µM (inactive); in assay [10], 7.48 µM (inactive); in assay [11] it was 3.38 µM (inactive); in [12], 2.93 µM (inactive). Besides, the GI50 in assay [13] is 0.462 µM (active); in assay [14], 2.58 µM (inactive); in assay [15], 4.67 µM (inactive); in [16], 4.86 µM (inactive); in assay [17] it was 2.64 µM (inactive); in assay [18], 4.13 µM (inactive). Moreover, the GI50 in assay [19] was 5.57 µM (inactive).

Turning to `CCc1nc(N)nc(N)c1-c1ccc(Cl)c([N+](=O)[O-])c1`, the GI50 in assay [1] is 2.49 µM (inactive); in assay [2] it was 0.611 µM (active); in [3], 3.38 µM (inactive); in assay [4], 2.95 µM (inactive); in assay [5] it was 0.0685 µM; in assay [6] it was 5.16 µM (inactive). The GI50 in assay [7] was 0.0588 µM (active); in [8], 0.0156 µM (active); in [9] it was 0.0735 µM (active); in [10], 0.274 µM (active); in assay [11], < 0.028 µM (active); in assay [12], 0.334 µM (active). Moreover, the GI50 in [13] is 0.0897 µM (active); in [14] it was 10.8 µM (inactive); in assay [15] it was 0.0637 µM (active); in assay [16] it was 17.9 µM (inactive); in assay [17], 0.0439 µM (active); in assay [18], 0.0475 µM (active). In addition, the GI50 in assay [19] was 0.126 µM (active).
